Assay in all cases: inhibition of tumour cell growth, NCI panel, 48 h
For assay [1], the system named is MDA-MB-435.
Assay [2] relates to OVCAR-8 ovarian.
Assay [3] relates to SK-OV-3 ovarian.
In assay [4] the test system is TK-10 renal.
Assay [5] has as its system SF-539 CNS.
The test system of assay [6] is NCI-H522 lung.
Assay [7] concerns NCI-H23 lung.
In assay [8] the test system is HCT-15 colon.
For assay [9], the system named is NCI-H460 lung.
Assay [10] has as its system HL-60(TB) leukemia.

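Results reflect a 48-hour exposure of cells in 96-well plates to compound at five concentrations. GI50: concentration for 50% inhibition of growth. TGI is the concentration that stops growth completely.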

In the case of `COc1ccc(N=C2SC(=N/N=c3\sc4ccccc4n3C)SC2=Nc2ccc(OC)cc2)cc1`, the TGI in assay [1], in assay [2], in [3], in assay [4], in assay [5] and in assay [6] was above 100 µM throughout. Moreover, the TGI in assay [7], in [8] and in assay [9] was above 100 µM each time.
Take `CC(C)(C)C(=O)OCC1CCC[N+]2(C)CCCCC12` (stereo unspecified): the TGI in assay [1], in [2], in assay [3], in assay [4], in assay [5] and in assay [7] was above 100 µM in each case. For the same molecule, the TGI in [8] and in assay [9] was above 100 µM throughout.
In the case of `CS(=O)(=O)Nc1ccc(N2Cc3cnc4ccc5[nH]ccc2c5c34)cc1`, the TGI in assay [1] is 31.5 µM; in assay [2], 62.5 µM; in assay [4], 89.1 µM; in assay [6], 29.5 µM; in assay [7] it was 76.9 µM; in assay [8], above 100 µM. Also, the TGI in assay [10] amounted to 64.4 µM; in assay [9], 46.2 µM.
In the case of `CN(c1ccc(Cl)cc1)S(=O)(=O)c1cccc([N+](=O)[O-])c1`, the TGI in [1], in [2], in assay [3], in assay [4], in assay [5] and in assay [6] was above 100 µM each time. For the same molecule, the TGI in assay [7], in assay [8] and in assay [9] was above 100 µM throughout.
As to `Cc1cc2nc3c(C#N)c(-c4ccccc4)cc(Nc4ccc(Cl)cc4)n3c2cc1C`, the TGI in assay [1], in assay [2], in [3], in assay [4], in [5] and in assay [6] was above 100 µM in each case. For the same molecule, the TGI in assay [7], in assay [8] and in [9] was above 100 µM throughout.
Consider `O/N=C1/COC(C(F)(F)F)(C(F)(F)F)C1`, for which the TGI in assay [1], in [2], in [3], in [4], in [5] and in [6] was above 100 µM throughout. In addition, the TGI in [7], in assay [8] and in assay [9] was above 100 µM throughout.
`COc1ccc(C2CC(c3cccc(Nc4ccncc4)c3)=NN2c2cc(Cl)cc(Cl)c2)cc1` (stereo unspecified): the GI50 is 1.75 µM in assay [1]; 11.3 µM in [3]; 1.68 µM in [5]; 1.79 µM in [7]; 1.7 µM in assay [8]; 2.17 µM in assay [10]. The GI50 in assay [9] is 1.86 µM. Besides, the TGI amounted to 3.32 µM in assay [1]; 31.4 µM in assay [3]; 3.14 µM in [5]; 3.44 µM in assay [7]; 3.26 µM in assay [8]; 5.12 µM in assay [10]. This molecule came in with a TGI in [9] of 3.45 µM.
Consider `COc1cc(C[S+]2CCCC2)c(SC)cc1C[S+]1CCCC1`, for which the TGI in assay [2], in [3], in assay [4], in assay [5], in [6] and in [7] was above 100 µM throughout. For the same molecule, the TGI in assay [8], in assay [10] and in assay [9] was above 100 µM throughout.
As for `CCSc1n/c(=C\c2ccco2)c2nnnn12`, the TGI in assay [1], in assay [2], in [3], in [4], in assay [5] and in [6] was above 100 µM throughout. Moreover, the TGI in [7] and in assay [8] was above 100 µM each time.
As to `O=C(c1ccc(O)cc1)C1c2c3c(cc(O)c2C(c2ccc(O)cc2)C1c1cc(O)cc(O)c1)OC(c1ccc(O)cc1)C3c1cc2c(cc1O)OC(c1ccc(O)cc1)C2c1cc(O)cc(O)c1` (stereo unspecified), the TGI in [2], in [4], in assay [5], in [6], in [7] and in [8] was above 12.5 µM throughout. For the same molecule, the TGI in assay [10] and in assay [9] was above 12.5 µM in each case.
For the molecule `Cc1ccc(/C=N/n2c(=O)[nH]c3ccccc3c2=O)cc1`, the TGI in assay [1], in [3], in [4], in assay [5], in assay [7] and in assay [8] was above 100 µM throughout. Besides, the TGI in assay [10] and in assay [9] was above 100 µM in each case.
As for `CC1CC(N)=Nc2ccccc2N1` (stereo unspecified), the TGI in assay [1], in assay [2], in assay [3], in assay [4], in assay [6] and in assay [7] was above 100 µM in each case. The TGI in assay [8] and in assay [10] was above 100 µM throughout.
On to `O=C1N=c2ccccc2=C1c1c(O)[nH]c2ccccc12`, for which the TGI was above 100 µM in assay [1]; 66.7 µM in assay [2]; above 100 µM in assay [3]; 72.7 µM in [4]; 25.6 µM in [6]; 69.2 µM in assay [7]. In addition, the TGI in assay [8] was 19.6 µM; in assay [9], 59.3 µM.
`CC1(CCCO)CCCCCC(C)(CCCO)C1=O` (stereo unspecified): the TGI in [1], in [2], in assay [3], in [6], in assay [7] and in assay [8] was above 100 µM in each case. Moreover, the TGI in assay [10] and in assay [9] was above 100 µM each time.
`C[C@@H]1C[C@H]2[C@@H]3CCC4=CC(=O)C=C[C@]4(C)[C@@]3(Cl)[C@@H](Cl)C[C@]2(C)[C@@]1(O)C(=O)COP(=O)(O)O`: the TGI in assay [1], in [2], in assay [3], in assay [4], in [6] and in assay [7] was above 100 µM throughout. In addition, the TGI in assay [8] was above 100 µM.
On to `CN1C(=O)N/C(=C\c2ccc(S(=O)(=O)NN)cc2)C1=O`, for which the TGI in assay [1], in assay [2], in [3], in assay [4], in assay [7] and in [8] was above 100 µM throughout. For the same molecule, the TGI in [10] is above 100 µM.
As to `CC(C)C1OC23CCCCC2C(C#N)(C#N)C1(C#N)C(=N)O3` (stereo unspecified), the TGI was 80.6 µM in assay [1]; 49.8 µM in [2]; above 100 µM in [3]; 48.4 µM in assay [4]; 39.4 µM in assay [5]; 85.8 µM in assay [7]. Moreover, the TGI in [8] was 23.5 µM; in [10], 30.8 µM; in [9], 32 µM.
`COc1ccc(C2S/C(=C\c3ccccc3O)C(=O)N2NC(=O)Cc2ccccc2)cc1` (stereo unspecified): the TGI in assay [2], in assay [3], in assay [4], in [5], in assay [6] and in assay [7] was above 100 µM each time. In addition, the TGI in [8], in [10] and in [9] was above 100 µM throughout.
As to `S=C(c1c[nH]c2ccccc12)N1CCOCC1`, the TGI in [1], in assay [2], in assay [3], in assay [4], in assay [5] and in assay [7] was above 100 µM in each case. The TGI in assay [8], in [10] and in assay [9] was above 100 µM in each case.
`C[C@]12C=CC(=O)C=C1CC[C@H]1[C@@H]3C[C@@H](O)[C@](O)(C(=O)CO)[C@@]3(C)C[C@H](O)[C@@]12F`: the TGI in assay [2], in assay [3], in assay [4], in assay [5], in assay [6] and in assay [7] was above 100 µM in each case. In addition, the TGI in assay [8], in [10] and in assay [9] was above 100 µM each time.
Turning to `CCOC(=O)C1=CC(C)(C(=O)OCC)Nc2c(nc(OC)n(C)c2=O)N1` (stereo unspecified), the TGI in [1], in assay [2], in [3], in assay [4], in [5] and in assay [6] was above 10 µM throughout. Moreover, the TGI in assay [7], in assay [8] and in assay [9] was above 10 µM throughout.
For the molecule `O=C1OC[C@@H]2Cc3cc4c(cc3[C@H](c3ccc5c(c3)OCO5)[C@@H]12)OCO4`, the TGI in assay [1], in assay [2], in assay [4], in assay [7], in assay [8] and in assay [10] was above 25 µM in each case. This molecule had a TGI in [9] above 25 µM.
Turning to `O=[N+]([O-])c1ccccc1S(=O)(=O)c1cc(Cl)cc2c1NCCC2`, the TGI in assay [1], in [2], in assay [3], in assay [4], in assay [5] and in assay [8] was above 100 µM each time. The TGI in [10] and in assay [9] was above 100 µM throughout.
Regarding `O=[N+]([O-])c1ccc(C=C2C(Cl)=C(Cl)C(Cl)=C2Cl)cc1`, the GI50 was 2.16 µM in assay [2]; 12.1 µM in [3]; 2.41 µM in [4]; 2.54 µM in [5]; 2.05 µM in assay [7]; 3.17 µM in assay [8]. Also, the GI50 in assay [9] is 3.62 µM. For the same molecule, the TGI in assay [2] is 5.28 µM; in assay [3], 29.9 µM; in assay [4] it was 7.58 µM; in assay [5], 7.09 µM; in [7] it was 5.16 µM; in assay [8], above 100 µM. In assay [9], the TGI was above 100 µM.
For the molecule `CNC(=S)N(C)C(=S)Nn1c(=O)c(C)nn(C)c1=S`, the TGI in [2], in [5], in [6], in [7], in assay [8] and in assay [10] was above 100 µM each time. Besides, the TGI in [9] is above 100 µM.
Turning to `COc1nc(C(=O)NNC(=O)c2nc(OC)c3ccccc3c2-c2ccccc2)c(-c2ccccc2)c2ccccc12`, the TGI in [1], in [2], in [3], in assay [4], in assay [6] and in assay [7] was above 100 µM each time. For the same molecule, the TGI in assay [8] and in assay [10] was above 100 µM in each case.
In the case of `Clc1c(Cl)c(Cl)c2nn(C3CCCO3)nc2c1Cl` (stereo unspecified), the TGI in assay [1], in [2], in assay [3], in [4], in assay [5] and in assay [6] was above 100 µM each time. Besides, the TGI in assay [7] was above 100 µM.
Regarding `N#C/C(C(=O)Nc1ccccc1)=C(/N)N1CCOCC1`, the TGI in assay [1], in assay [2], in assay [3], in [5], in assay [7] and in [8] was above 100 µM in each case. The molecule also gave a TGI in [9] above 100 µM.
Regarding `Cc1cc(N(CCC#N)CCC#N)ccc1/C(N=Nc1ccc([N+](=O)[O-])cc1)=N\NC(=O)c1cc(Cl)ccc1C(=O)c1ccccc1`, the TGI is above 100 µM in [1]; 26.1 µM in assay [2]; above 100 µM in [3]; above 100 µM in assay [4]; 6.17 µM in assay [6]; 38.6 µM in [7]. Further, the results for the TGI in assay [8] and in [9] were 37.2 µM and 43.2 µM, respectively.
For the molecule `COCCOCc1nc(C#N)c(N)o1`, the TGI in assay [1], in assay [3], in [4], in assay [5], in assay [7] and in assay [8] was above 100 µM in each case. Also, the TGI in [10] and in [9] was above 100 µM each time.
